According to ChEMBL document CHEMBL4257490, “Development of a peptide-based bifunctional chelator conjugated to a cytotoxic drug for the treatment of melanotic melanoma” (Medchemcomm, 2018):
Residues, ends and D or L forms follow the SMILES beside them. *: point of attachment. X1 = O=c1nc(N*)ccn1[C@@H]1O[C@H](CO)[C@@H](O)C1(F)F

What was measured:
[1] = Drug uptake in mouse B16F10 cells using 5,6-carboxyfluorescein-labeled compound at 20 ug/ml after 4 hrs by DAPI staining-based fluorescence microscopic method; format: ADME, cell-based; conditions: b16-f10, 4 h
[2] = Stability in saline assessed as parent compond remaining using 99mTc(CO)3-labeled compound after 24 hrs by TLC method; format: physicochemical; conditions: read-out: Stability
[3] = Drug degradation in histidine solution using 99mTc(CO)3-labeled compound after 24 hrs by TLC method; format: physicochemical; conditions: read-out: Drug degradation
[4] = Drug uptake in mouse B16F10 cells using 99mTc(CO)3-labeled compound at 15 to 20 MBq/ml after 30 mins by gamma scintillation counting method relative to total added activity; format: ADME, cell-based; conditions: b16-f10, 0.5 h
[5] = Drug uptake in blood of Balb/c mouse allografted with mouse B16F10 cells using 99mTc(CO)3-labeled compound at 10 to 12 MBq/kg, iv measured at 2 hrs; format: ADME, organism-based; conditions: in vivo
[6] = Drug uptake in lung of Balb/c mouse allografted with mouse B16F10 cells using 99mTc(CO)3-labeled compound at 10 to 12 MBq/kg, iv measured at 2 hrs; format: ADME, organism-based; conditions: in vivo
[7] = Drug uptake in intestine of Balb/c mouse allografted with mouse B16F10 cells using 99mTc(CO)3-labeled compound at 10 to 12 MBq/kg, iv measured at 2 hrs; format: ADME, organism-based; conditions: in vivo
[8] = Drug uptake in stomach of Balb/c mouse allografted with mouse B16F10 cells using 99mTc(CO)3-labeled compound at 10 to 12 MBq/kg, iv measured at 2 hrs; format: ADME, organism-based; conditions: in vivo
[9] = Ratio of drug level in tumor to muscle of Balb/c mouse allografted with mouse B16F10 cells using 99mTc(CO)3-labeled compound at 10 to 12 MBq/kg, iv measured at 2 hrs; format: ADME, organism-based, Tumor/tissue; conditions: in vivo
[10] = Drug uptake in liver of Balb/c mouse allografted with mouse B16F10 cells using 99mTc(CO)3-labeled compound at 10 to 12 MBq/kg, iv measured at 4 hrs; format: ADME, organism-based; conditions: in vivo
[11] = Drug uptake in intestine of Balb/c mouse allografted with mouse B16F10 cells using 99mTc(CO)3-labeled compound at 10 to 12 MBq/kg, iv measured at 4 hrs; format: ADME, organism-based; conditions: in vivo
[12] = Drug uptake in stomach of Balb/c mouse allografted with mouse B16F10 cells using 99mTc(CO)3-labeled compound at 10 to 12 MBq/kg, iv measured at 4 hrs; format: ADME, organism-based; conditions: in vivo
[13] = Drug uptake in tumor of Balb/c mouse allografted with mouse B16F10 cells using 99mTc(CO)3-labeled compound at 4 to 8 MBq, iv measured at 4 hrs by scintigraphic imaging method; format: ADME, organism-based, Neoplasm; conditions: in vivo
B16-F10 [14] = assay: Induction of apoptosis in mouse B16F10 cells at IC50 after 72 hrs by annexin V-FITC/propidium iodide staining-based flow cytometric method relative to control; format: functional
B16-F10 [15] = assay: Induction of apoptosis in mouse B16F10 cells assessed as necrotic cells at IC50 after 72 hrs by annexin V-FITC/propidium iodide staining-based flow cytometric method relative to control; format: functional
B16-F10 [16] = assay: Antitumor activity against mouse B16F10 cells allografted in Balb/c mouse assessed as tumor growth inhibition at 25 mg/kg, iv administered thrice weekly for 21 days starting on day 10 post tumor implantation relative to control; format: functional; conditions: read-out: TGI
[17] = Drug uptake in mouse B16F10 cells using 99mTc(CO)3-labeled compound at 15 to 20 MBq/ml after 240 mins by gamma scintillation counting method; format: ADME, cell-based; conditions: b16-f10, 4 h

- Drug uptake [1]: Active
- remaining at 24 h [2]: ≥ 92%
- degraded at 24 h [3]: 5%
- Drug uptake [4]: 4.99%
- Drug uptake [5]: 1.79 %ID/ml
- Drug uptake [6]: 0.4 % ID/g
- Drug uptake [7]: 8.51 % ID/g
- Drug uptake [8]: 0.25 % ID/g
- Ratio [9]: 10.64
- Drug uptake [10]: 15.62 % ID/g
- Drug uptake [11]: 6.28 % ID/g
- Drug uptake [12]: 0.17 % ID/g
- Drug uptake [13]: Active
- Drug uptake [17]: 80%
SMILES: NCCCC[C@H](NC(=O)CNC(=O)[C@H](Cc1cnc[nH]1)NC(=O)[C@H](CCCCN)NC(=O)[C@H](Cc1ccc(O)cc1)NC(=O)[C@@H](N)Cc1cnc[nH]1)C(=O)N[C@@H](CC(=O)Nc1ccn([C@@H]2O[C@H](CO)[C@@H](O)C2(F)F)c(=O)n1)C(N)=O (H-HYKHGKD(X1)-NH2)
- Activity (B16-F10 [14]): 61%
- Activity (B16-F10 [15]): 12 - 14%
- inhibition in vivo at 25 mg/kg (B16-F10 [16]): 62%
